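All cell lines were grown in 96-well plates and treated with compound for 48 hours. Definition used: TGI = concentration required for complete inhibition of growth.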
Tests used:
Assay in all cases: inhibition of tumour cell growth, NCI panel, 48 h
TK-10 renal = system: TK-10 renal
ACHN renal = system: ACHN renal
OVCAR-8 ovarian = system: OVCAR-8 ovarian
KM20L2 colon = system: KM20L2 colon
UO-31 renal = system: UO-31 renal
HCT-15 colon = system: HCT-15 colon
NCI-H460 lung = system: NCI-H460 lung
DLD-1 colon = system: DLD-1 colon
HOP-18 NSCLC = system: HOP-18 NSCLC
OVCAR-5 ovarian = system: OVCAR-5 ovarian
K-562 leukemia = system: K-562 leukemia
SK-MEL-28 melanoma = system: SK-MEL-28 melanoma
UACC-62 melanoma = system: UACC-62 melanoma
CAKI-1 renal = system: CAKI-1 renal
HT29 colon = system: HT29 colon
DMS 114 small cell lung = system: DMS 114 small cell lung
LOX IMVI melanoma = system: LOX IMVI melanoma
UACC-257 melanoma = system: UACC-257 melanoma
SK-OV-3 ovarian = system: SK-OV-3 ovarian
HCC-2998 colon = system: HCC-2998 colon
M14 melanoma = system: M14 melanoma
NCI-H226 lung = system: NCI-H226 lung
NCI-H23 lung = system: NCI-H23 lung
U251 CNS = system: U251 CNS
KM12 colon = system: KM12 colon
DMS 273 small cell lung = system: DMS 273 small cell lung
HOP-92 NSCLC = system: HOP-92 NSCLC
COLO 205 colon = system: COLO 205 colon
M19-MEL melanoma = system: M19-MEL melanoma
HCT-116 colon = system: HCT-116 colon
LXFL 529 NSCLC = system: LXFL 529 NSCLC
SF-295 CNS = system: SF-295 CNS
SNB-75 CNS = system: SNB-75 CNS
SF-539 CNS = system: SF-539 CNS
A549 NSCLC = system: A549 NSCLC
EKVX NSCLC = system: EKVX NSCLC
RPMI-8226 leukemia = system: RPMI-8226 leukemia
HOP-62 NSCLC = system: HOP-62 NSCLC
OVCAR-4 ovarian = system: OVCAR-4 ovarian
SF-268 CNS = system: SF-268 CNS
MOLT-4 leukemia = system: MOLT-4 leukemia
786-0 renal = system: 786-0 renal
CCRF-CEM leukemia = system: CCRF-CEM leukemia
IGROV1 ovarian = system: IGROV1 ovarian
A498 renal = system: A498 renal
SK-MEL-5 melanoma = system: SK-MEL-5 melanoma
SN12C renal = system: SN12C renal
HL-60(TB) leukemia = system: HL-60(TB) leukemia
SW-620 colon = system: SW-620 colon
OVCAR-3 ovarian = system: OVCAR-3 ovarian
SK-MEL-2 melanoma = system: SK-MEL-2 melanoma
SNB-19 CNS = system: SNB-19 CNS
RXF 393 renal = system: RXF 393 renal
NCI-H522 lung = system: NCI-H522 lung
XF 498 CNS = system: XF 498 CNS
MALME-3M melanoma = system: MALME-3M melanoma

`NC(=O)C12C3C4C1C1C2C3C41C(N)=O` (stereo unspecified) gave a TGI (TK-10 renal) of over 100 µM, a TGI (ACHN renal) of over 100 µM and a TGI (OVCAR-8 ovarian) of over 100 µM. For the same molecule, the TGI (KM20L2 colon) was over 100 µM, the TGI (UO-31 renal) was over 100 µM and the TGI (HCT-15 colon) was over 100 µM. The TGI (NCI-H460 lung) was over 100 µM, the TGI (DLD-1 colon) was over 100 µM and the TGI (HOP-18 NSCLC) was over 100 µM. The TGI (OVCAR-5 ovarian) was over 100 µM, the TGI (K-562 leukemia) was over 100 µM and the TGI (SK-MEL-28 melanoma) was over 100 µM. For the same molecule, the TGI (UACC-62 melanoma) was over 100 µM, the TGI (CAKI-1 renal) was over 100 µM and the TGI (HT29 colon) was over 100 µM. It also gave a TGI (DMS 114 small cell lung) of over 100 µM, a TGI (LOX IMVI melanoma) of over 100 µM and a TGI (UACC-257 melanoma) of over 100 µM. It also gave a TGI (SK-OV-3 ovarian) of over 100 µM, a TGI (HCC-2998 colon) of over 100 µM and a TGI (M14 melanoma) of over 100 µM. For the same molecule, the TGI (NCI-H226 lung) was over 100 µM, the TGI (NCI-H23 lung) was over 100 µM and the TGI (U251 CNS) was over 100 µM. The TGI (KM12 colon) was over 100 µM, the TGI (DMS 273 small cell lung) was over 100 µM and the TGI (HOP-92 NSCLC) was over 100 µM. For the same molecule, the TGI (COLO 205 colon) was over 100 µM, the TGI (M19-MEL melanoma) was over 100 µM and the TGI (HCT-116 colon) was over 100 µM. The TGI (LXFL 529 NSCLC) was over 100 µM, the TGI (SF-295 CNS) was over 100 µM and the TGI (SNB-75 CNS) was over 100 µM. For the same molecule, the TGI (SF-539 CNS) was over 100 µM, the TGI (A549 NSCLC) was over 100 µM and the TGI (EKVX NSCLC) was over 100 µM. The TGI (RPMI-8226 leukemia) was over 100 µM, the TGI (HOP-62 NSCLC) was over 100 µM and the TGI (OVCAR-4 ovarian) was over 100 µM. The TGI (SF-268 CNS) was over 100 µM, the TGI (MOLT-4 leukemia) was over 100 µM and the TGI (786-0 renal) was over 100 µM. It also gave a TGI (CCRF-CEM leukemia) of over 100 µM, a TGI (IGROV1 ovarian) of over 100 µM and a TGI (A498 renal) of over 100 µM. The TGI (SK-MEL-5 melanoma) was over 100 µM, the TGI (SN12C renal) was over 100 µM and the TGI (HL-60(TB) leukemia) was over 100 µM. It also gave a TGI (SW-620 colon) of over 100 µM, a TGI (OVCAR-3 ovarian) of over 100 µM and a TGI (SK-MEL-2 melanoma) of over 100 µM. For the same molecule, the TGI (SNB-19 CNS) was over 100 µM, the TGI (RXF 393 renal) was over 100 µM and the TGI (NCI-H522 lung) was over 100 µM.

`COC1(OC)CC2C(=O)N(Cc3ccccc3)C1CC2S(=O)(=O)c1ccccc1` (stereo unspecified) gave a TGI (TK-10 renal) of over 100 µM, a TGI (ACHN renal) of over 100 µM and a TGI (OVCAR-8 ovarian) of over 100 µM. The TGI (UO-31 renal) was over 100 µM, the TGI (HCT-15 colon) was over 100 µM and the TGI (NCI-H460 lung) was over 100 µM. It also gave a TGI (DLD-1 colon) of over 100 µM, a TGI (HOP-18 NSCLC) of over 100 µM and a TGI (XF 498 CNS) of 98.7 µM. The TGI (K-562 leukemia) was over 100 µM, the TGI (SK-MEL-28 melanoma) was over 100 µM and the TGI (UACC-62 melanoma) was over 100 µM. The TGI (HT29 colon) was over 100 µM, the TGI (DMS 114 small cell lung) was over 100 µM and the TGI (LOX IMVI melanoma) was over 100 µM. It also gave a TGI (UACC-257 melanoma) of over 100 µM, a TGI (SK-OV-3 ovarian) of over 100 µM and a TGI (M14 melanoma) of over 100 µM. For the same molecule, the TGI (NCI-H226 lung) was over 100 µM, the TGI (NCI-H23 lung) was over 100 µM and the TGI (U251 CNS) was over 100 µM. It also gave a TGI (KM12 colon) of over 100 µM, a TGI (DMS 273 small cell lung) of over 100 µM and a TGI (COLO 205 colon) of over 100 µM. It also gave a TGI (M19-MEL melanoma) of over 100 µM, a TGI (HCT-116 colon) of over 100 µM and a TGI (SF-295 CNS) of over 100 µM. It also gave a TGI (SNB-75 CNS) of over 100 µM, a TGI (SF-539 CNS) of over 100 µM and a TGI (A549 NSCLC) of over 100 µM. The TGI (EKVX NSCLC) was over 100 µM, the TGI (MALME-3M melanoma) was over 100 µM and the TGI (RPMI-8226 leukemia) was over 100 µM. The TGI (HOP-62 NSCLC) was over 100 µM, the TGI (MOLT-4 leukemia) was over 100 µM and the TGI (786-0 renal) was over 100 µM. It also gave a TGI (CCRF-CEM leukemia) of over 100 µM, a TGI (IGROV1 ovarian) of over 100 µM and a TGI (SK-MEL-5 melanoma) of over 100 µM. For the same molecule, the TGI (SN12C renal) was over 100 µM, the TGI (HL-60(TB) leukemia) was over 100 µM and the TGI (SW-620 colon) was over 100 µM. The TGI (OVCAR-3 ovarian) was over 100 µM, the TGI (SK-MEL-2 melanoma) was over 100 µM and the TGI (SNB-19 CNS) was over 100 µM. It also gave a TGI (RXF 393 renal) of over 100 µM and a TGI (NCI-H522 lung) of over 100 µM.
